ChEMBL document CHEMBL5604063, “ASAP - DENV-2 NS2B-NS3 protease fluorescence dose response” (2024)
pIC50: −log10 of the molar value. Several values for one entry are separate records, joined by “and”; a condition that tells them apart may be missing. Equal entries are not always repeated.

Key:
[1] = molecular target: T1, Genome polyprotein (dengue virus type 2, UniProt P29990); type: functional, Thailand/16681/1984
[2] = molecular target: T1, Genome polyprotein; type: functional, Thailand/16681/1984; remark: listed apart in the source

T1 sequence (P29990 1346-1475 limits assumed): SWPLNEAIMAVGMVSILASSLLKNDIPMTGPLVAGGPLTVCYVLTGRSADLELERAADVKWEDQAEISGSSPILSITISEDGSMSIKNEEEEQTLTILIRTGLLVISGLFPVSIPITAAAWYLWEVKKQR
T1 sequence (P29990 1476-2093 limits assumed): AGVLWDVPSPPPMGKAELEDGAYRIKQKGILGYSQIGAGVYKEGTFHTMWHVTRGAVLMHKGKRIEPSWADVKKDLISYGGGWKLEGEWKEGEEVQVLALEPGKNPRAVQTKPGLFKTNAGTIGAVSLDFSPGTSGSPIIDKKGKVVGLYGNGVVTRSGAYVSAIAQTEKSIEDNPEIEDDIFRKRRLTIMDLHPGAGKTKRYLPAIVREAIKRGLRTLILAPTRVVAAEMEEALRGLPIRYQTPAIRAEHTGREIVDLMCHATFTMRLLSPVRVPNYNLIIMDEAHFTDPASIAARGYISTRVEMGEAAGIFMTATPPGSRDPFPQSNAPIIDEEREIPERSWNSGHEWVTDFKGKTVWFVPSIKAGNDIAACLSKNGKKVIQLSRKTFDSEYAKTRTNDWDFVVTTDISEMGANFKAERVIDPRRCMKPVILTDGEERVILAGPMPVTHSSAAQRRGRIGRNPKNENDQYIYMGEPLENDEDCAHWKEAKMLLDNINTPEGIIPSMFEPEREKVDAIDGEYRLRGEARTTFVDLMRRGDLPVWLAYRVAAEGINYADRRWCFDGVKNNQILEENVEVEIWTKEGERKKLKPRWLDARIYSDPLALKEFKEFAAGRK

Row | Structure (SMILES) | pIC50 [1] | pIC50 [2]
1 | O=C(Nc1cc(Cl)cc([C@H](C#CCO)Nc2cccc(-c3nn[nH]n3)c2)c1)OCc1ccccc1 | 4.87 and 4.89 | 5.10 and 5.15
2 | Cc1c(C(=O)Nc2cc(CCCN)ccc2F)cc(C2CC2)n1C | < 4.00 | < 4.00
3 | Cc1c(C(=O)Nc2cccc(-n3nn[nH]c3=O)c2)cc(C2CC2)n1C | < 4.00 | < 4.00
4 | NCc1cccc(N[C@H](C#CCO)c2cc(Cl)cc(NC(=O)OCc3ccccc3)c2)c1 | 4.03 | < 4.00
5 | COc1c(C(=O)N(C)C)cc(Cl)cc1S(=O)(=O)Nc1cccc(-c2nnn[nH]2)c1 | < 4.00 | < 4.00
6 | N#C[C@H](Nc1cccc(-c2nn[nH]n2)c1)c1cc(Cl)cc(NC(=O)OCc2ccccc2)c1 | 4.98 and 4.86 and 5.01 | 5.06 and 5.18 and 4.94 and 5.08
7 | O=C(Nc1ccc2c(c1)CNC2)c1cc(Cl)cc2[nH]ncc12 | 4.14 and 4.23 and 4.05 | < 4.00
8 | O=C(Nc1cccc(-c2nnn[nH]2)c1)c1cc(Cl)cc2[nH]ncc12 | < 4.00 | < 4.00
9 | C=CC[C@H](Nc1cccc(-c2nn[nH]n2)c1)c1cc(Cl)cc2[nH]ncc12 | 4.04 | 4.27 and 4.35
10 | Cc1c(C(=O)Nc2ccc([C@@H](C)N)cc2)cc(C2CC2)n1C | < 4.00 | < 4.00
11 | CNC(=O)[C@H](Nc1cccc(-c2nn[nH]n2)c1)c1cc(Cl)cc(NC(=O)OCc2ccccc2)c1 | 4.31 | 4.55 and 4.68
12 | NCc1ccc2c(c1)[C@H]1OCCC[C@H]1[C@H](c1cc(Cl)cc(NC(=O)OCc3ccccc3)c1)N2 | 4.75 and 4.80 | 4.47 and 4.34
13 | CC[C@H](Cc1nnn[nH]1)c1ccc(NC(=O)c2cc(Cl)cc(-n3cccc3)c2)cc1 | 4.58 | 4.83 and 4.68
14 | O=C(O)CCCc1ccc(NC(=O)c2cc(Cl)cc(NC(=O)OCc3ccccc3)c2)cc1 | 4.36 | 4.56 and 4.67
15 | O=S(=O)(Nc1cccc(-c2nnn[nH]2)c1)c1cc(Cl)cc(-c2ccccc2)c1 | 4.45 | 4.79 and 4.55
16 | N#Cc1cc(Cl)cc(S(=O)(=O)Nc2cccc(-c3nnn[nH]3)c2)c1 | < 4.00 | < 4.00
17 | NCCc1ccc([C@H]2C[C@@H]2c2cc(Cl)cc(NC(=O)OCc3ccccc3)c2)cc1 | 5.14 and 5.06 | 4.23 and 4.50
18 | CNC(=O)[C@H](Nc1cccc(-c2nn[nH]n2)c1)c1cc(Cl)cc2[nH]ncc12 | < 4.00 | < 4.00
19 | NCc1ccc2nc(-c3cc(Cl)cc(NC(=O)OCc4ccccc4)c3)c(CCCO)cc2c1 | 4.05 | < 4.00
20 | Clc1cc(CCc2cccc(-c3nn[nH]n3)c2)c2cn[nH]c2c1 | < 4.00 | 4.00
21 | Nc1cccc(NC(=O)c2cc(Cl)cc(NC(=O)OCc3ccccc3)c2)c1 | < 4.00 | < 4.00
22 | CC(C)c1nc2c(C(=O)Nc3cccc(-c4nnn[nH]4)c3)cccc2[nH]1 | < 4.00 | < 4.00
23 | COC(=O)c1cc(Cl)cc([C@@H]2CN(Cc3ccccc3)C[C@H]2c2cccc(CN)c2)c1 | < 4.00 | < 4.00
24 | O=S(=O)(Nc1cccc(-c2nnn[nH]2)c1)c1cc(Cl)cc2c1OCC2 | < 4.00 | < 4.00
25 | O=C(Nc1ccc(-c2nnn[nH]2)cc1)c1cc(Cl)cc(C2CC2)c1 | 4.16 | 4.43 and 4.44
26 | CCNC(=O)Nc1cc(Cl)cc(C(=O)Nc2cc(C)cc(CN)c2)c1 | < 4.00 | < 4.00

Row | Structure (SMILES) | pIC50 [1] | pIC50 [2]
27 | Nc1nc2ccc(NC(=O)c3cc(Cl)cc(NC(=O)OCc4ccccc4)c3)cc2[nH]1 | < 4.00 | < 4.00
28 | O=C(Nc1cc(Cl)cc(S(=O)(=O)Nc2cccc(-c3nn[nH]n3)c2)c1)OCc1ccccc1 | 4.65 | 4.94 and 5.05
29 | NCc1cc(C(=O)O)cc([C@@H]2C[C@H]2c2cc(Cl)cc(NC(=O)OCc3ccccc3)c2)c1 | < 4.00 | < 4.00
30 | CCNC(=O)Nc1cc(Cl)cc(C(=O)Nc2ccc([C@H](CC)Cc3nnn[nH]3)cc2)c1 | < 4.00 | < 4.00
31 | CNC(=O)[C@H](Nc1cccc(N)n1)c1cc(Cl)cc(CNC(=O)OC(C)(C)C)c1 | < 4.00 | < 4.00
32 | O=C(Nc1cc(Cl)cc(C(=O)Nc2cc(Br)cc(-c3nnn[nH]3)c2)c1)OCc1ccccc1 | 5.23 | 5.32 and 5.21
33 | Cc1onc(C(=O)Nc2cccc(CN)c2)c1CN1CCCC1 | < 4.00 | < 4.00
34 | C=CC[C@H](Nc1cc(Cl)cc(NC(=O)OCc2ccccc2)c1)c1cccc(-c2nn[nH]n2)c1 | 5.13 and 5.12 | 5.17 and 5.30 and 5.26 and 5.24 and 5.38
35 | O=C(Nc1cc(Cl)cc([C@H]2C[C@@H]2c2cccc(C3CCNCC3)c2)c1)OCc1ccccc1 | 5.17 and 5.16 | 4.27 and 4.46
36 | COC(=O)c1cc(NC(=O)c2cc(Cl)cc(NC(=O)OCc3ccccc3)c2)cc(-c2nnn[nH]2)c1 | 5.21 | 5.27 and 5.20
37 | N#Cc1cc(CN)cc(NC(=O)c2cc(Cl)cc(NC(=O)OCc3ccccc3)c2)c1 | < 4.00 | < 4.00
38 | O=S(=O)(Nc1cccc(-c2nnn[nH]2)c1)c1cc(Cl)cc(C(F)(F)F)c1 | < 4.00 | < 4.00
39 | CCNC(=O)Nc1cc(Cl)cc(C(=O)Nc2ccc3c(c2)CNCCO3)c1 | < 4.00 | < 4.00
40 | C=CC[C@H](Nc1cc(CN)ccn1)c1cc(Cl)cc(NC(=O)OCc2ccccc2)c1 | < 4.00 | < 4.00
41 | CNC(=O)[C@H](Nc1cccc(C(=O)O)c1)c1cc(Cl)cc2[nH]ncc12 | < 4.00 | < 4.00
42 | CC[C@H](Cc1nn[nH]n1)c1ccc(N[C@H](C(=O)NC)c2cc(Cl)cc(NC(=O)OCc3ccccc3)c2)cc1 | 4.53 | 4.81 and 4.60
43 | O=C(Nc1cc(Cl)cc([C@H](C#CCO)Nc2ccc(-c3nn[nH]n3)cc2)c1)OCc1ccccc1 | 4.91 | 5.09 and 5.17
44 | C=CC[C@H](Nc1cccc(CN)n1)c1cc(Cl)cc(NC(=O)OCc2ccccc2)c1 | < 4.00 | < 4.00
45 | O=C(Nc1cc(Cl)cc(C(=O)NC2(c3nn[nH]n3)CCCC2)c1)OCc1ccccc1 | < 4.00 | < 4.00
46 | C#C[C@H](Nc1cccc(-c2nn[nH]n2)c1)c1cc(Cl)cc(NC(=O)OCc2ccccc2)c1 | 4.97 | 5.03 and 5.08
47 | Cc1c(C(=O)Nc2cc(F)cc(CN)c2)cc(C2CC2)n1C | < 4.00 | < 4.00
48 | Cc1c(C(=O)Nc2cccc(CN)c2)cc(C2CCC2)n1C | < 4.00 | < 4.00
49 | Cc1c(C(=O)Nc2cc(CN)ccc2F)cc(C2CC2)n1C | < 4.00 | < 4.00
50 | CNC(=O)[C@H](Nc1cc(Cl)cc(NC(=O)OCc2ccccc2)c1)c1cccc(-c2nn[nH]n2)c1 | 4.34 and 4.36 | 4.65 and 4.74
51 | NCc1cccc([C@H](CCCO)Nc2cc(Cl)cc(NC(=O)OCc3ccccc3)c2)c1 | 4.07 | < 4.00
52 | O=C(Nc1cc(Cl)cc([C@H]2C[C@@H]2c2ccc3c(c2)CNC3)c1)OCc1ccccc1 | < 4.00 | < 4.00

Row | Structure (SMILES) | pIC50 [1] | pIC50 [2]
53 | CC[C@H](Cc1nnn[nH]1)c1ccc(NC(=O)[C@H]2[C@H]3CCCCC[C@H]3[C@H]2NC(=O)OCc2ccccc2)cc1 | 4.64 | 4.88 and 4.78
54 | CCNC(=O)Nc1cc(Cl)cc(C(=O)Nc2cc(CCCN)ccc2F)c1 | < 4.00 | < 4.00
55 | CCNC(=O)Nc1cc(Cl)cc(C(=O)Nc2cccc(-c3nn[nH]n3)c2)c1 | < 4.00 | < 4.00
56 | O=C(Nc1cc(Cl)cc(C(=O)Nc2cc(-c3nnn[nH]3)ccc2F)c1)OCc1ccccc1 | 4.81 | 4.96 and 5.13
57 | CCc1cc(C(=O)Nc2cccc(-n3nn[nH]c3=O)c2)sc1-c1ccc(Cl)cc1 | 4.95 and 4.89 | 4.98 and 4.91
58 | COC(=O)c1cc(CN)cc([C@@H]2C[C@H]2c2cc(Cl)cc(NC(=O)OCc3ccccc3)c2)c1 | < 4.00 | < 4.00
59 | Cc1ccc(-c2nnn[nH]2)cc1NC(=O)c1cc(Cl)cc(NC(=O)OCc2ccccc2)c1 | 4.74 | 5.04 and 4.88
60 | NCc1ccc([C@H]2C[C@@H]2c2cc(Cl)cc(NC(=O)OCc3ccccc3)c2)cc1 | 5.01 and 4.96 | < 4.00
61 | CCNC(=O)Nc1cc(Cl)cc(C(=O)Nc2cccc(-n3nn[nH]c3=O)c2)c1 | < 4.00 | < 4.00
62 | O=C(O)CCCc1cccc(NC(=O)c2cc(Cl)cc(NC(=O)OCc3ccccc3)c2)c1 | 4.43 | 4.62 and 4.71
63 | O=C(Nc1cc(Cl)cc(C(=O)N[C@H](c2nn[nH]n2)C2CCNCC2)c1)OCc1ccccc1 | < 4.00 | < 4.00
64 | O=C(Nc1cc(Cl)cc(/C=C/c2cccc(-n3nn[nH]c3=O)c2)c1)OCc1ccccc1 | 5.06 and 5.07 | 4.94 and 5.06
65 | O=C(Nc1cc(Cl)cc(S(=O)(=O)Nc2cccc(-n3nn[nH]c3=O)c2)c1)OCc1ccccc1 | 4.47 | 4.79 and 4.85
66 | O=S(=O)(Nc1cccc(-c2nnn[nH]2)c1)c1cc(F)cc(Cl)c1 | < 4.00 | < 4.00
67 | CNC(=O)[C@H](Nc1cc(Cl)cc(NC(=O)OCc2ccccc2)c1)c1cccc(CN)c1 | < 4.00 | < 4.00
68 | N#C[C@H](Nc1cccc(C(=O)O)c1)c1cc(Cl)cc2[nH]ncc12 | < 4.00 | < 4.00
69 | CCOC(=O)c1[nH]c(C)c(C(=O)Nc2cccc(CN)c2)c1CC | < 4.00 | < 4.00
70 | Cc1c(C(=O)Nc2ccc3c(c2)CNCCO3)cc(C2CC2)n1C | < 4.00 | < 4.00
71 | O=C(Nc1cc(Cl)cc(C(=O)Nc2ccc3c(c2)C(=O)NC3)c1)OCc1ccccc1 | < 4.00 | < 4.00
72 | N[C@H]1CCc2cc(NC(=O)c3cc(Cl)cc(NC(=O)OCc4ccccc4)c3)ccc21 | 4.35 | < 4.00
73 | O=C(N[C@H]1[C@H]2CCCCC[C@H]2[C@H]1C(=O)Nc1cccc(-n2nn[nH]c2=O)c1)OCc1ccccc1 | 4.57 | 4.42 and 4.26
74 | COC(=O)c1cc(Cl)cc(S(=O)(=O)Nc2cccc(-c3nnn[nH]3)c2)c1F | < 4.00 | < 4.00
75 | NCc1ccc2c(c1)[C@H](N1CCCC1=O)C[C@H](c1cc(Cl)cc(NC(=O)OCc3ccccc3)c1)N2 | < 4.00 | 4.12
76 | CNC(=O)C[C@H](Nc1cccc(F)n1)c1cc(Cl)cc(Br)c1 | < 4.00 | < 4.00
77 | COc1c(C(N)=O)cc(Cl)cc1S(=O)(=O)Nc1cccc(-c2nnn[nH]2)c1 | < 4.00 | < 4.00
